The values below come from US9540392B2, “Thienopyrimidines” (BAYER PHARMA AKTIENGESELLSCHAFT, priority 2012, dated 2017).

T1 sequence (Q9BUB5 1-424 isoform Q9BUB5-2 T344D): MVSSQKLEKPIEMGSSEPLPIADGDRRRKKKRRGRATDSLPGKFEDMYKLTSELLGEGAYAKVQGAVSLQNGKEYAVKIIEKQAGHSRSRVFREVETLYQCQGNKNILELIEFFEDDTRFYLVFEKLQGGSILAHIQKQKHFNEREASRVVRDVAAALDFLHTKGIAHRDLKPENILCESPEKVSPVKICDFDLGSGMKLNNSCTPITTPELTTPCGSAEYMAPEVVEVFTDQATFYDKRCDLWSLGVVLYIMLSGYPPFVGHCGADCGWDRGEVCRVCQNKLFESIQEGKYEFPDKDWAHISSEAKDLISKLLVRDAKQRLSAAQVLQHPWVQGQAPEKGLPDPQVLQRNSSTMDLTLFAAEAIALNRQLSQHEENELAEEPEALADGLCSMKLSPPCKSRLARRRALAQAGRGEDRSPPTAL

The assay concerns the target T1, human full-length MKNK1 (Homo sapiens, UniProt Q9BUB5, T385D).
T1 construct: GST (N); purchased Carna Biosciences 02-145; host or cells: insect cells (baculovirus expression system)
The experiment in a line: MKNK1 kinase high ATP assay (TR-FRET). In kind it is biochemical. The following applies: 2 mM ATP, after preincubation with MKNK1; read-out: MKNK1 IC50 (MKNK1 high ATP). The method, then:
MKNK1-inhibitory activity at high ATP of compounds of the present invention after their preincubation with MKNK1 was quantified employing the TR-FRET-based MKNK1 high ATP assay as described in the following paragraphs.
As substrate for the kinase reaction the biotinylated peptide biotin-Ahx-[…] (C-terminus in amide form) was used, which can be purchased e.g. from the company Biosyntan (Berlin-Buch, Germany).
For the assay 50 nL of a 100 fold concentrated solution of the test compound in DMSO was pipetted into a black low volume 384 well microtiter plate (Greiner Bio-One, Frickenhausen, Germany), 2 μL of a solution of MKNK1 in aqueous assay buffer [50 mM HEPES pH 7.5, 5 mM MgCl2, 1.0 mM dithiothreitol, 0.005% (v/v) Nonidet-P40 (Sigma)] was added and the mixture was incubated for 15 min at 22° C. to allow pre-binding of the test compounds to the enzyme before the start of the kinase reaction. Then the kinase reaction was started by the addition of 3 μL of a solution of adenosine-tri-phosphate (ATP, 3.3 mM=>final conc. in the 5 μL assay volume is 2 mM) and substrate (0.1 μM=>final conc. in the 5 μL assay volume is 0.06 μM) in assay buffer and the resulting mixture was incubated for a reaction time of 30 min at 22° C. The concentration of MKNK1 was adjusted depending of the activity of the enzyme lot and was chosen appropriate to have the assay in the linear range, typical concentrations were in the range of 0.003 μg/mL. The reaction was stopped by the addition of 5 μL of a solution of TR-FRET detection reagents (5 nM streptavidine-XL665 [Cisbio Bioassays, Codolet, France] and 1 nM anti-ribosomal protein S6 (pSer236)-antibody from Invitrogen [#44921G] and 1 nM LANCE EU-W1024 Labeled ProteinG [Perkin-Elmer, product no. AD0071]) in an aqueous EDTA-solution (100 mM EDTA, 0.1% (w/v) bovine serum albumin in 50 mM HEPES pH 7.5).
The resulting mixture was incubated for 1 h at 22° C. to allow the formation of complex between the phosphorylated biotinylated peptide and the detection reagents. Subsequently the amount of phosphorylated substrate was evaluated by measurement of the resonance energy transfer from the Eu-chelate to the streptavidine-XL. Therefore, the fluorescence emissions at 620 nm and 665 nm after excitation at 350 nm were measured in a TR-FRET reader, e.g. a Rubystar (BMG Labtechnologies, Offenburg, Germany) or a Viewlux (Perkin-Elmer). The ratio of the emissions at 665 nm and at 622 nm was taken as the measure for the amount of phosphorylated substrate.
(In general: TR-FRET usually uses a lanthanide donor and a delayed reading to cut background.)
Consider `O=C(C1CCc2c(sc3ncnc(Nc4ccc5[nH]ncc5c4)c23)C1)N1CCN(Cc2ccccc2)CC1` (racemic) [Example 86, (RS)-(4-benzylpiperazin-1-yl)[4-(1H-indazol-5-ylamino)-5,6,7,8-tetrahydro[1]benzothieno[2,3-d]pyrimidin-7-yl]methanone], for which the IC50 is 0.0149 µM.
With `O=C(C1CCc2c(sc3ncnc(Nc4ccc5[nH]ncc5c4)c23)C1)N1CCN(c2ccccn2)CC1` (racemic) [Example 87, (RS)-[4-(1H-indazol-5-ylamino)-5,6,7,8-tetrahydro[1]benzothieno[2,3-d]pyrimidin-7-yl][4-(pyridin-2-yl)piperazin-1-yl]methanone] the figure was 0.0206 µM.
With `O=C(C1CCc2c(sc3ncnc(Nc4ccc5[nH]ncc5c4)c23)C1)N1CCCC(CO)C1` (racemic) [Example 88, (RS)-[3-(hydroxymethyl)piperidin-1-yl][4-(1H-indazol-5-ylamino)-5,6,7,8-tetrahydro[1]benzothieno[2,3-d]pyrimidin-7-yl]methanone], the IC50 is 0.0099 µM.
With `O=C(Nc1cc[nH]n1)C1CCc2c(sc3ncnc(Nc4ccc5[nH]ncc5c4)c23)C1` (racemic) [Example 89, (RS)-4-(1H-indazol-5-ylamino)-N-(1H-pyrazol-3-yl)-5,6,7,8-tetrahydro[1]benzothieno[2,3-d]pyrimidine-7-carboxamide], the IC50 was found to be 0.0241 µM.
As to `O=C(NCc1cccs1)C1CCc2c(sc3ncnc(Nc4ccc5[nH]ncc5c4)c23)C1` (racemic) [Example 90, (RS)-4-(1H-indazol-5-ylamino)-N-(thiophen-2-ylmethyl)-5,6,7,8-tetrahydro[1]benzothieno[2,3-d]pyrimidine-7-carboxamide], the IC50 came out at 0.0164 µM.
The figure for `CN(C(=O)C1CCc2c(sc3ncnc(Nc4ccc5[nH]ncc5c4)c23)C1)c1ccccc1` (racemic) [Example 91, (RS)-4-(1H-indazol-5-ylamino)-N-methyl-N-phenyl-5,6,7,8-tetrahydro[1]benzothieno[2,3-d]pyrimidine-7-carboxamide] is 0.0066 µM; for `O=C(NCCc1c[nH]cn1)C1CCc2c(sc3ncnc(Nc4ccc5[nH]ncc5c4)c23)C1` (racemic) [Example 92, (RS)-N-[2-(1H-imidazol-4-yl)ethyl]-4-(1H-indazol-5-ylamino)-5,6,7,8-tetrahydro[1]benzothieno[2,3-d]pyrimidine-7-carboxamide] it is 0.0098 µM; for `O=C(NCCCn1ccnc1)C1CCc2c(sc3ncnc(Nc4ccc5[nH]ncc5c4)c23)C1` (racemic) [Example 93, (RS)-N-[3-(1H-imidazol-1-yl)propyl]-4-(1H-indazol-5-ylamino)-5,6,7,8-tetrahydro[1]benzothieno[2,3-d]pyrimidine-7-carboxamide] it is 0.0099 µM.
Regarding `O=C(Nc1ccncc1)C1CCc2c(sc3ncnc(Nc4ccc5[nH]ncc5c4)c23)C1` (racemic) [Example 94, (RS)-4-(1H-indazol-5-ylamino)-N-(pyridin-4-yl)-5,6,7,8-tetrahydro[1]benzothieno[2,3-d]pyrimidine-7-carboxamide], the IC50 came out at 0.0234 µM.
With `CCN(CC)CCN(C)C(=O)C1CCc2c(sc3ncnc(Nc4ccc5[nH]ncc5c4)c23)C1` (racemic) [Example 95, (RS)-N-[2-(diethylamino)ethyl]-4-(1H-indazol-5-ylamino)-N-methyl-5,6,7,8-tetrahydro[1]benzothieno[2,3-d]pyrimidine-7-carboxamide] the figure was 0.0206 µM.
On to `CN(C)CCCN(C)C(=O)C1CCc2c(sc3ncnc(Nc4ccc5[nH]ncc5c4)c23)C1` (racemic) [Example 96, (RS)-N-[3-(dimethylamino)propyl]-4-(1H-indazol-5-ylamino)-N-methyl-5,6,7,8-tetrahydro[1]benzothieno[2,3-d]pyrimidine-7-carboxamide], for which the IC50 came to 0.0163 µM.
In the case of `CC(=O)N1CCN(C(=O)C2CCc3c(sc4ncnc(Nc5ccc6[nH]ncc6c5)c34)C2)CC1` (racemic) [Example 97, (RS)-1-(4-{[4-(1H-indazol-5-ylamino)-5,6,7,8-tetrahydro[1]benzothieno[2,3-d]pyrimidin-7-yl]carbonyl}piperazin-1-yl)ethanone], the IC50 is 0.0203 µM.
On to `O=C(NCCN1CCCC1)C1CCc2c(sc3ncnc(Nc4ccc5[nH]ncc5c4)c23)C1` (racemic) [Example 98, (RS)-4-(1H-indazol-5-ylamino)-N-[2-(pyrrolidin-1-yl)ethyl]-5,6,7,8-tetrahydro[1]benzothieno[2,3-d]pyrimidine-7-carboxamide], for which the half-inhibitory concentration (IC50) came out at 0.0081 µM.
With `O=C(Nc1ccccn1)C1CCc2c(sc3ncnc(Nc4ccc5[nH]ncc5c4)c23)C1` (racemic) [Example 99, (RS)-4-(1H-indazol-5-ylamino)-N-(pyridin-2-yl)-5,6,7,8-tetrahydro[1]benzothieno[2,3-d]pyrimidine-7-carboxamide] the figure was 0.0277 µM; with `O=C(Nc1cccnc1)C1CCc2c(sc3ncnc(Nc4ccc5[nH]ncc5c4)c23)C1` (racemic) [Example 100, (RS)-4-(1H-indazol-5-ylamino)-N-(pyridin-3-yl)-5,6,7,8-tetrahydro[1]benzothieno[2,3-d]pyrimidine-7-carboxamide], 0.0075 µM; with `CN(Cc1ccccc1)C(=O)C1CCc2c(sc3ncnc(Nc4ccc5[nH]ncc5c4)c23)C1` (racemic) [Example 101, (RS)-N-benzyl-4-(1H-indazol-5-ylamino)-N-methyl-5,6,7,8-tetrahydro[1]benzothieno[2,3-d]pyrimidine-7-carboxamide], 0.0047 µM.
As for `CC(C)(C)NC(=O)C1CCc2c(sc3ncnc(Nc4ccc5[nH]ncc5c4)c23)C1` (racemic) [Example 102, (RS)-N-tert-butyl-4-(1H-indazol-5-ylamino)-5,6,7,8-tetrahydro[1]benzothieno[2,3-d]pyrimidine-7-carboxamide], the IC50 was determined as 0.0149 µM.
The figure for `CCOC(=O)N1CCN(C(=O)C2CCc3c(sc4ncnc(Nc5ccc6[nH]ncc6c5)c34)C2)CC1` (racemic) [Example 103, (RS)-ethyl4-{[4-(1H-indazol-5-ylamino)-5,6,7,8-tetrahydro[1]benzothieno[2,3-d]pyrimidin-7-yl]carbonyl}piperazine-1-carboxylate] is 0.0164 µM; for `CC1CCCN(C(=O)C2CCc3c(sc4ncnc(Nc5ccc6[nH]ncc6c5)c34)C2)C1` (racemic) [Example 104, (RS)-[4-(1H-indazol-5-ylamino)-5,6,7,8-tetrahydro[1]benzothieno[2,3-d]pyrimidin-7-yl](3-methylpiperidin-1-yl)methanone] it is 0.0074 µM; for `CC1CCN(C(=O)C2CCc3c(sc4ncnc(Nc5ccc6[nH]ncc6c5)c34)C2)CC1` (racemic) [Example 105, (RS)-[4-(1H-indazol-5-ylamino)-5,6,7,8-tetrahydro[1]benzothieno[2,3-d]pyrimidin-7-yl](4-methylpiperidin-1-yl)methanone] it is 0.0168 µM.
Take `O=C(C1CCc2c(sc3ncnc(Nc4ccc5[nH]ncc5c4)c23)C1)N1CCN(c2ccccc2)CC1` (racemic) [Example 106, (RS)-[4-(1H-indazol-5-ylamino)-5,6,7,8-tetrahydro[1]benzothieno[2,3-d]pyrimidin-7-yl](4-phenylpiperazin-1-yl)methanone]: the IC50 came out at 0.0145 µM.
With `COCCN(CCOC)C(=O)C1CCc2c(sc3ncnc(Nc4ccc5[nH]ncc5c4)c23)C1` (racemic) [Example 107, (RS)-4-(1H-indazol-5-ylamino)-N,N-bis(2-methoxyethyl)-5,6,7,8-tetrahydro[1]benzothieno[2,3-d]pyrimidine-7-carboxamide] the figure was 0.0081 µM; with `O=C(C1CCc2c(sc3ncnc(Nc4ccc5[nH]ncc5c4)c23)C1)N1CCCC(O)C1` (racemic) [Example 108, (RS)-(3-hydroxypiperidin-1-yl)[4-(1H-indazol-5-ylamino)-5,6,7,8-tetrahydro[1]benzothieno[2,3-d]pyrimidin-7-yl]methanone], 0.012 µM.
With `CCN(Cc1ccncc1)C(=O)C1CCc2c(sc3ncnc(Nc4ccc5[nH]ncc5c4)c23)C1` (racemic) [Example 109, (RS)-N-ethyl-4-(1H-indazol-5-ylamino)-N-(pyridin-4-ylmethyl)-5,6,7,8-tetrahydro[1]benzothieno[2,3-d]pyrimidine-7-carboxamide] the figure was 0.008 µM.

The IC50 is the point on the concentration scale where inhibition reaches its midpoint.
